The values that follow come from paper PMC6044451 (Journal of medicinal chemistry, 2018).

For the experiment, the system named is HIV-1LAI. The experiment in a line: Antiviral activity in MT-2 human T-lymphoid cells exposed to HIV-1LAI. Format: cell-based.

In general, IC50 refers to the point on the concentration scale where inhibition reaches its midpoint.

For `CC(C)(C)NC(=O)[C@@H]1C[C@@H]2CCCC[C@@H]2CN1C[C@@H](O)[C@H](Cc1ccccc1)NC(=O)[C@H](CC(N)=O)NC(=O)c1ccc2ccccc2n1` [SQV, saquinavir], the IC50 (Human immunodeficiency virus 1, MT2, in Homo sapiens, read-out: antiviral IC50) came to 21 nM. For the compound `COc1ccc(S(=O)(=O)N(CC(C)C)C[C@@H](O)[C@H](Cc2ccccc2)NC(=O)O[C@H]2C[C@H]3CO[C@H]4OCC[C@@H]2[C@@H]34)cc1` [Inhibitor 4c, (2aR,2a^1R,4S,4aR,7aR)-Octahydro-2H-1,7-dioxacyclopenta[cd]inden-4-yl ((2S,3R)-3-hydroxy-4-((N-isobutyl-4-methoxyphenyl)sulfonamido)-1-phenylbutan-2-yl)carbamate], for the setting “MT-2 cells exposed to HIV-1LAI, versus 4b”, the “improvement in antiviral activity compared to inhibitor 4b” value is 4 fold.
